From patent US5696136A, “Method of treating psychosis using azaheterocyclylmethyl” (Bayer Aktiengesellschaft, priority 1991, dated 1997)
Counter-ions that a name gives are not always drawn. Like-named read-outs stand apart in the source and are kept apart here.

How the values were obtained:
5-HT1A receptor = target: T1, 5-HT1A receptor (Bos taurus, UniProt F6Q2H9); test: Affinity for the 5-HT1A receptor; binding of 3H-ipsapiron to 5-HT1A receptors in calf hippocampus membranes
T1 construct: 5-HT1A receptors in calf hippocampus membranes; from tissue; host or cells: calf hippocampus membranes
T1 sequence (F6Q2H9 1-422): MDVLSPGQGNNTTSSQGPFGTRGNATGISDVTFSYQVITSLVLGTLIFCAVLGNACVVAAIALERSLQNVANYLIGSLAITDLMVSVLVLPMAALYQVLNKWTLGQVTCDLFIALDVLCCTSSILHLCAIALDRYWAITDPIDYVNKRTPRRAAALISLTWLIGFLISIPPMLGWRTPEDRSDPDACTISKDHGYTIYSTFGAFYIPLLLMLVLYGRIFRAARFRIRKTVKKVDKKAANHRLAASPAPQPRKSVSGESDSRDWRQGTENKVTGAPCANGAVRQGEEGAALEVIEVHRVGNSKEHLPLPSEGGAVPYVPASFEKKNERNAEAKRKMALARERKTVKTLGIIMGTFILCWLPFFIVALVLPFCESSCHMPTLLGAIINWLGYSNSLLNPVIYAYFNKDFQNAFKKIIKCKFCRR
Description: Affinity for the 5-HT1A receptor
[W. U. Dompert et al., Naunyn-Schmiedeberg's Arch. Pharmacol. (1985), 328, 467-470].
In this test the binding of ^3 H-ipsapiron to 5-HT1A receptors in calf hippocampus membranes is measured.

dopamine D2 receptor = dopamine D2 receptor (Rattus norvegicus, UniProt P61169); test: Dopamine D2 receptor test; binding of 3H-sulpiride to membranes from the striatum of rats
Chain of dopamine D2 receptor (P61169 whole entry): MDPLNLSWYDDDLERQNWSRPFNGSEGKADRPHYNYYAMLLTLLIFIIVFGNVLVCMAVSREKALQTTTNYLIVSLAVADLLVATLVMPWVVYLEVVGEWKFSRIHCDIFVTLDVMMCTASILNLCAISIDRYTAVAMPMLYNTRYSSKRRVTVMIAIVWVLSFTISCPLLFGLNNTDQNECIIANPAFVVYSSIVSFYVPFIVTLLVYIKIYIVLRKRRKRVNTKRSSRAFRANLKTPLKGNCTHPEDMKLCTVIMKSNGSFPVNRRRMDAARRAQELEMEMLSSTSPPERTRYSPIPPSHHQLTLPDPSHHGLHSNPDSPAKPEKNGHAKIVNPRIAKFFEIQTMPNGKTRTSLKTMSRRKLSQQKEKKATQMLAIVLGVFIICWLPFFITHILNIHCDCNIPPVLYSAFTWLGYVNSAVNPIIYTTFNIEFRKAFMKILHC
Description: In this test the binding of the selective D2 receptor antagonist ^3 H-sulpiride to membranes from the striatum of rats is measured. Compounds which bind to dopamine D2 receptors inhibit the binding of ^3 H-sulpiride in a concentration-dependent manner. IC50 values are determined from the displacement curves and the inhibition constants Ki calculated from these values.

5-HT1 receptor = test: Affinity for the 5-HT1 receptor; receptor-binding studies using calf hippocampus membrane preparations, 3H-serotonin; conditions: calf hippocampus membranes
Source text: Affinity for the 5-HT1 receptor
The high affinity of the compounds according to the invention for 5-hydroxytryptamine receptors of subtype 1 is shown in Table 1 by way of example. The values shown are data which have been determined from receptor-binding studies using calf hippocampus membrane preparations. To this end, ^3 H-serotonin was used as radioactively labelled ligand.

α-adrenergic = conditions: hydrochloride; literature; cited from earlier work
[1] = 3H-sulpiride, rat striatum membranes, Ki calculated from IC50, read-out: Ki

Row | SMILES | Ki (5-HT1A receptor) | Ki (dopamine D2 receptor; [1]) | Ki (5-HT1 receptor) | further results
1 | COc1cccc2c1OC(CN1CCC(n3c(=O)[nH]c4ccccc43)CC1)CC2 (centres unmarked) [Example 4] |  |  | 2 nM | 
2 | c1ccc2c(c1)CCC(CN1CCCCC1)O2 (centres unmarked) [1-[(3,4-dihydro-2H-1-benzopyran-2-yl)methyl]piperidine] |  |  |  | α-adrenergic-blocking effect (α-adrenergic): α-adrenergic-blocking effect
3 | COc1cccc2c1OC(CN1CCC(CN3C(=O)c4ccccc4C3=O)CC1)CC2 (centres unmarked) [Example 2, 2-[4-(Isoindol-1,3-dion-2-yl)methyl-piperidin-1-yl)methyl-8-methoxychroman oxalate hydrate] |  | 1.8 nM | 3 nM | 
4 | O=c1[nH]c2ccccc2n1C1CCN(CC2CCc3ccccc3O2)CC1 (centres unmarked) [Example 3, 1-(Chroman-2-yl-methyl)-4-(2-oxo-1-benzimidazolyl)-piperidine] |  |  |  | Ki (dopamine D2 receptor): 0.4 nM

Continued, in another order:

Row | Ki (5-HT1A receptor) | Ki (dopamine D2 receptor; [1]) | SMILES | Ki (5-HT1 receptor) | further results
5 | 1.4 nM | 2.3 nM | COc1cccc2c1OC(CN1CC=C(n3c(=O)[nH]c4ccccc43)CC1)CC2 (centres unmarked) [Example 6] |  | 
6 | 1.5 nM |  | O=c1[nH]c2ccccc2n1C1=CCN(CC2CCc3ccccc3O2)CC1 (centres unmarked) [Example 5] |  | 
